From patent US20240366644A1, “ANTI-INFLAMMATORY APPLICATION OF GINSENOSIDE RD” (priority 2022, published 2024)

Tested on: COVID-19 Delta virus-infected mice
Test: IL-1β and MCP-1 expression (RT-qPCR) in lung homogenates of COVID-19 Delta virus-infected mice
Assay type: in vivo, hACE2 transgenic C57BL/6 mice
Conditions: 20 mg/kg administration group

CC(C)=CCC[C@](C)(O[C@@H]1O[C@H](CO)[C@@H](O)[C@H](O)[C@H]1O)[C@H]1CC[C@]2(C)[C@@H]1[C@H](O)C[C@@H]1[C@@]3(C)CC[C@H](O[C@@H]4O[C@H](CO)[C@@H](O)[C@H](O)[C@H]4O[C@@H]4O[C@H](CO)[C@@H](O)[C@H](O)[C@H]4O)C(C)(C)[C@@H]3CC[C@]12C [Ginsenoside Rd, ginsenoside Rd]
ability to inhibit the overexpression of inflammatory mediators compared with Dexamethasone: considerable to that of Dexamethasone
